The results in this text go back to patent publication US10183021B2, “sGC stimulators” (Ironwood Pharmaceuticals, Inc., priority 2013, dated 2019).

Each structure is given as a SMILES string. pEC50: −log10 of the molar value.

In general, EC50 refers to the concentration needed to bring the measured effect to its halfway point. The Emax is the maximal effect, on the per cent scale that the assay sets. For orientation: pEC50 means −log10 of the EC50, conventionally taken in molar units.

Assay [1] deals with T1, soluble guanylate cyclase (sGC) (Homo sapiens (Human), UniProt Q02108+Q02153). The experiment in a line: sGC-HEK-cGMP assay, new protocol with DETA-NONOate, LC/MS detection (Example 2C). It counts as cell-based. To be noted: read-out: Absolute EC50 (uM) - binned. As for the experimental part: Human embryonic kidney cells (HEK293), endogenously expressing soluble guanylate cyclase (sGC), were used to evaluate the activity of test compounds. Compounds stimulating the sGC enzyme should cause an increase in the intracellular concentration of cGMP. HEK 293 cells were seeded in Dulbecco's Modification of Eagle's Medium supplemented with fetal bovine serum (10% final) and penicillin (100 U/mL)/streptomycin (100 μg/mL) in a 50 μL volume at a density of 1.5×10^4 cells/well in a poly-D-lysine coated 384 well flat bottom plate. Cells were incubated overnight at 37° C. in a humidified chamber with 5% CO2. Medium was aspirated and cells were washed with 1× Hank's Buffered Saline Salt Solution (50 μL). Cells were then incubated for 15 minutes at 37° C. with 50 μL of a 0.5 mM 3-isobutyl-1-methylxanthine (IBMX) solution. Test article and Diethylenetriamine NONOate (DETA-NONOate) solutions (x μM concentration for test article solution and 10 μM concentration for DETA-NONOate solution; wherein x is one of the following concentrations);
were then added to the assay mixture and the resulting mixture incubated at 37° C. for 20 minutes. After the 20 minute incubation, the assay mixture was aspirated and 10% acetic acid containing 150 ng/mL+3-cGMP (internal standard for LCMS) (50 μL) was added to the cells. The plate was incubated at 4° C. for 30 minutes in the acetic acid solution to stop the reaction and lyse the cells. The plates were then centrifuged at 1,000 g for 3 minutes at 4° C. and the supernatant transferred to a clean reaction plate for LCMS analysis.
cGMP concentrations were determined from each sample using the LCMS conditions below (Table 5) and calculated standard curve.
Data were normalized to a high control using the following equation: 100*(Sample−Low Control)/(High Control−Low Control), where the low control is the average of 16 samples treated with 1% DMSO, and the high control is the average of 16 samples treated with 30 μM of 1-329 Data were fit using a 4-parameter fit (log(agonist) vs. response—variable slope) using GraphPad Prism Software v.5. n=2 for all compounds. […] Compounds failing to elicit a minimum response of 50% are reported as >30 μM.

Assay [2] has as its target T1, soluble guanylate cyclase (sGC). The experiment in a line: sGC-HEK-cGMP assay with SNP incubation, LC/MS detection (Example 2A). It counts as cell-based. To be noted: HEK293 cells, 10 μM SNP, LC/MS detection; for Emax: 100% = BAY 41-2272 at 10 μM, read-out: HEK assay Emax - unconstrained (%); for pEC50: top of curve not fitted to 100%, read-out: HEK assay EC50 - unconstrained. The method in brief: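 HEK293 cells with endogenous sGC were pretreated 15 min at 37 °C with 0.5 mM IBMX, then exposed 10 min at 37 °C to compound (added from 0.0001–30 μM solutions) plus SNP (from 10 μM solution). After 0.1 M HCl lysis, cGMP was quantified by LC/MS against a standard curve.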

T1 sequence (Q02153 whole entry): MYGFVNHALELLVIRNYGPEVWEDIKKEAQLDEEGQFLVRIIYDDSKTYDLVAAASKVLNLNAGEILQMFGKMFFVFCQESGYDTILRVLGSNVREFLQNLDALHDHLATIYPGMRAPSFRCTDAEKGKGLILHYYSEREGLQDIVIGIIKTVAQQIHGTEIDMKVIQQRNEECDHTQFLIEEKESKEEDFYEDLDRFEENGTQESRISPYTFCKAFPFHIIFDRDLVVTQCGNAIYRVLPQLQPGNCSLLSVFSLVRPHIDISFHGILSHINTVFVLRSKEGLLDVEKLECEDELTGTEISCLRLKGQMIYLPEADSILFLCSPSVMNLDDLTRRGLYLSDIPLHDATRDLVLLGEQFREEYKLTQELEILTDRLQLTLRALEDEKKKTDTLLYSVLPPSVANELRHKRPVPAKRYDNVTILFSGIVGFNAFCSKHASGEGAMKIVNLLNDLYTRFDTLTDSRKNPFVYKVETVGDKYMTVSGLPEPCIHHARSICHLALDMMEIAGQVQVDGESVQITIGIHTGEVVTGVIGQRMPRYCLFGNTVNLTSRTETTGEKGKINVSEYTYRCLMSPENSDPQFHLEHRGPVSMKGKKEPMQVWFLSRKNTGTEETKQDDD
T1 sequence (Q02108 whole entry): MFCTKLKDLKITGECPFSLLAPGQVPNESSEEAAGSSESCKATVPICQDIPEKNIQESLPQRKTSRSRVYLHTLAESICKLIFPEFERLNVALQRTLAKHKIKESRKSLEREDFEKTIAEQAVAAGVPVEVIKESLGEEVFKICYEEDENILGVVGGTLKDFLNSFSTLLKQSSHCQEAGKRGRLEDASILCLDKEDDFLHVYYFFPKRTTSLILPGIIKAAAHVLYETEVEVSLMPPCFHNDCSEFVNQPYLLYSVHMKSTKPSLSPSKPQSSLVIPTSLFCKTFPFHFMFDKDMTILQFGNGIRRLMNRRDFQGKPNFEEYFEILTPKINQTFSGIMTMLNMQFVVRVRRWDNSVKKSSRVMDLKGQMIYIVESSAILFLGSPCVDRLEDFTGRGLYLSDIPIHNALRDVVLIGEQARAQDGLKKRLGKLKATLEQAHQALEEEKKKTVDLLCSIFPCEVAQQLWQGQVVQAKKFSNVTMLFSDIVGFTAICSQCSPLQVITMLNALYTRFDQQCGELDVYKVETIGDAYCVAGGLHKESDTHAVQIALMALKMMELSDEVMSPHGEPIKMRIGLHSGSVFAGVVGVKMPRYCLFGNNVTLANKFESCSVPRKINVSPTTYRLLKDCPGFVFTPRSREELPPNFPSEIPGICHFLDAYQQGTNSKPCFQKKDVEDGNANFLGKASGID

As to `O=C(O)[C@H]1[C@H]2CC[C@H](C2)[C@H]1Nc1nc(-c2cc(-c3ccon3)n(Cc3ccccc3F)n2)ncc1F` (racemic) [Compound I-379], the EC50 in assay [1] was less than 0.1 µM.
Consider `O=C(O)[C@H]1[C@@H](Nc2nc(-c3cc(-c4ccon4)n(Cc4ccccc4F)n3)ncc2F)[C@@H]2CC[C@H]1O2` (racemic) [Compound I-384], for which the concentration for a half-maximal effect (EC50) in assay [1] is more than 1 µM.
For `O=C(Nc1ccnc(-c2cc(-c3ccon3)n(Cc3ccccc3F)n2)n1)C(F)(F)F` [Compound I-164], the EC50 in assay [1] was in the range of 0.101 to 1 µM.
Same read-out and setting: to `CC1(C)CCC(C(=O)O)N(c2nc(-c3cc(-c4ccon4)n(Cc4ccccc4F)n3)ncc2F)C1` (centres unmarked) [Compound I-268] belongs less than 0.1 µM; to `O=C(O)C12CC(Nc3nc(-c4cc(-c5ccon5)n(Cc5ccccc5F)n4)ncc3F)(C1)C2` [Compound I-269], more than 1 µM.
Take `CN(Cc1cccc(C(=O)O)c1)c1nc(-c2cc(-c3ccon3)n(Cc3ccccc3F)n2)ncc1F` [Compound I-274]: in assay [2], the Emax lay in the range of 100 to 120% and the pEC50 is 7.00 to 9.00.
Regarding `CN(Cc1ccc(C(=O)O)cc1)c1nc(-c2cc(-c3ccon3)n(Cc3ccccc3F)n2)ncc1F` [Compound I-275], in assay [2], the Emax fell in the range of 80 to 100% and the pEC50 is 7.00 to 9.00.
Taken in the same sequence, the figures for `Fc1ccccc1Cn1nc(-c2ncc(F)c(Nc3nnn[nH]3)n2)cc1-c1ccon1` [Compound I-276] were 40 to 60% and 6.30 to 7.00.
Taken in the same sequence, the figures for `CC(C)(CC(=O)O)Nc1nc(-c2cc(-c3ccon3)n(Cc3ccccc3F)n2)ncc1F` [Compound I-277] were 60 to 80% and 6.30 to 7.00.
Taken in the same sequence, the figures for `O=c1ccc(CNc2nc(-c3cc(-c4ccon4)n(Cc4ccccc4F)n3)ncc2F)c[nH]1` [Compound I-278] were 80 to 100% and 6.30 to 7.00.
With `CN(Cc1ccccc1C(=O)O)c1nc(-c2cc(-c3ccon3)n(Cc3ccccc3F)n2)ncc1F` [Compound I-279], in assay [2], the Emax fell in the range of 80 to 100% and the pEC50 is 6.30 to 7.00.
Taken in the same sequence, the figures for `O=C(O)c1ccc(CNc2nc(-c3cc(-c4ccon4)n(Cc4ccccc4F)n3)ncc2F)cc1` [Compound I-280] were 100 to 120% and 6.30 to 7.00.
Taken in the same sequence, the figures for `O=C(NS(=O)(=O)N1CCN(c2nc(-c3cc(-c4ccon4)n(Cc4ccccc4F)n3)ncc2F)CC1)C1CC1` [Compound I-285] were 100 to 120% and 7.00 to 9.00.
In the case of `Oc1ccc(CNc2nc(-c3cc(-c4ccon4)n(Cc4ccccc4F)n3)ncc2F)cc1` [Compound I-286], in assay [2], the Emax is 80 to 100% and the pEC50 was 7.00 to 9.00.
Turning to `CS(=O)(=O)c1ccc(CNc2nc(-c3cc(-c4ccon4)n(Cc4ccccc4F)n3)ncc2F)cc1` [Compound I-287], in assay [2], the Emax lay within 80 to 100% and the pEC50 is 6.30 to 7.00.
Turning to `Oc1ccccc1CNc1nc(-c2cc(-c3ccon3)n(Cc3ccccc3F)n2)ncc1F` [Compound I-288], in assay [2], the Emax is 80 to 100% and the pEC50 was 6.30 to 7.00.
Taken in the same sequence, the figures for `CC1(CC(=O)O)CCN(c2nc(-c3cc(-c4ccon4)n(Cc4ccccc4F)n3)ncc2F)CC1` [Compound I-289] were 60 to 80% and 6.30 to 7.00.
Taken in the same sequence, the figures for `O=C(O)C1(C2CCCCC2)CCN(c2nc(-c3cc(-c4ccon4)n(Cc4ccccc4F)n3)ncc2F)CC1` [Compound I-290] were 60 to 80% and 6.30 to 7.00.
For `O=C(O)C(CCNc1nc(-c2cc(-c3ccon3)n(Cc3ccccc3F)n2)ncc1F)c1ccccc1` (centres unmarked) [Compound I-292], in assay [2], the Emax was in the range of 80 to 100% and the pEC50 is 7.00 to 9.00.
With `COC(=O)C1(N)CCN(c2nc(-c3cc(-c4ccon4)n(Cc4ccccc4F)n3)ncc2F)CC1` [Compound I-298], in assay [2], the Emax was in the range of 60 to 80% and the pEC50 was 6.30 to 7.00.
On to `NC1(C(=O)O)CCN(c2nc(-c3cc(-c4ccon4)n(Cc4ccccc4F)n3)ncc2F)CC1` [Compound I-299], for which, in assay [2], the Emax fell in the range of 40 to 60% and the pEC50 was 5.30 to 6.00.
On to `O=C(O)[C@@H]1CC(F)(F)CN1c1nc(-c2cc(-c3ccon3)n(Cc3ccccc3F)n2)ncc1F` [Compound I-301], for which, in assay [2], the maximal effect (Emax) lay in the range of 60 to 80% and the pEC50 was 5.30 to 6.00.
Take `O=C(O)C12CC1CCCN2c1nc(-c2cc(-c3ccon3)n(Cc3ccccc3F)n2)ncc1F` (centres unmarked) [Compound I-308]: the EC50 in assay [1] was in the range of 0.101 to 1 µM.
Consider `CN(c1nc(-c2cc(-c3ccon3)n(Cc3ccccc3F)n2)ncc1F)[C@@H]1CC[C@H](C(=O)O)C1` [Compound I-309], for which, in assay [1], the EC50 is less than 0.1 µM.
Turning to `C[C@@H]1[C@H](C(=O)O)CCCN1c1nc(-c2cc(-c3ccon3)n(Cc3ccccc3F)n2)ncc1F` [Compound I-310], the half-maximal effective concentration (EC50) in assay [1] was less than 0.1 µM.
`C[C@H]1[C@@H](C(=O)O)CCCN1c1nc(-c2cc(-c3ccon3)n(Cc3ccccc3F)n2)ncc1F` [Compound I-311]: in assay [1], the EC50 fell in the range of 0.101 to 1 µM.
`O=C(O)C12CC1CN(c1nc(-c3cc(-c4ccon4)n(Cc4ccccc4F)n3)ncc1F)C2` (centres unmarked) [Compound I-312]: in assay [1], the EC50 fell in the range of 0.101 to 1 µM.
Still for that read-out and setting: the result for `C[C@@H]1CN(c2nc(-c3cc(-c4ccon4)n(Cc4ccccc4F)n3)ncc2F)C[C@@H]1C(=O)O` [Compound I-314] reads less than 0.1 µM; that for `Oc1c(F)cc(CNc2nc(-c3cc(-c4ccon4)n(Cc4ccccc4F)n3)ncc2F)cc1F` [Compound I-317], less than 0.1 µM; that for `OC[C@H]1CCN(c2nc(-c3cc(-c4ccon4)n(Cc4ccccc4F)n3)ncc2F)[C@@H](CO)C1` [Compound I-318], less than 0.1 µM.
Consider `O=C(O)[C@H]1[C@@H](c2ccccc2)CCCN1c1nc(-c2cc(-c3ccon3)n(Cc3ccccc3F)n2)ncc1F` [Compound I-319], for which the EC50 in assay [1] is less than 0.1 µM.
Regarding `CN(C[C@H](O)CO)c1nc(-c2cc(-c3ccon3)n(Cc3ccccc3F)n2)ncc1F` [Compound I-320], in assay [1], the EC50 is less than 0.1 µM.
Take `CN(C[C@@H](O)CO)c1nc(-c2cc(-c3ccon3)n(Cc3ccccc3F)n2)ncc1F` [Compound I-321]: in assay [1], the EC50 was less than 0.1 µM.
The same measure, in the same setting: to `OC[C@@H](O)CN(CC1CC1)c1nc(-c2cc(-c3ccon3)n(Cc3ccccc3F)n2)ncc1F` [Compound I-322] belongs less than 0.1 µM; to `CC(C)N(C[C@H](O)CO)c1nc(-c2cc(-c3ccon3)n(Cc3ccccc3F)n2)ncc1F` [Compound I-323], 0.101 to 1 µM.
Regarding `CC(C)(O)CNc1nc(-c2cc(-c3ccon3)n(Cc3ccccc3F)n2)ncc1F` [Compound I-325], the EC50 in assay [1] is less than 0.1 µM.
On the same count and under the same terms, the result for `O=C(Nc1ccnc(-c2cc(-c3ccon3)n(Cc3ccccc3F)n2)n1)[C@H](O)C(F)(F)F` [Compound I-326] reads 0.101 to 1 µM.
Regarding `CCOc1c(Nc2ccnc(-c3cc(-c4ccon4)n(Cc4ccccc4F)n3)n2)c(=O)c1=O` [Compound I-327], the EC50 in assay [1] was more than 1 µM.
On the same count and under the same terms, to `O=C(Nc1ccnc(-c2cc(-c3ccon3)n(Cc3ccccc3F)n2)n1)C1(C(F)(F)F)CC1` [Compound I-328] belongs more than 1 µM; to `C[C@H]1CCCN(c2nc(-c3cc(-c4ccon4)n(Cc4ccccc4F)n3)ncc2F)[C@H]1C(=O)NS(=O)(=O)C1CC1` [Compound I-331], 0.101 to 1 µM; to `C[C@H]1CCCN(c2nc(-c3cc(-c4ccon4)n(Cc4ccccc4F)n3)ncc2F)[C@@H]1C(=O)NS(=O)(=O)C1CC1` [Compound I-332], less than 0.1 µM.
For the molecule `C[C@H]1CCCN(c2ccnc(-c3cc(-c4ccon4)n(Cc4ccccc4F)n3)n2)[C@H]1C(=O)O` [Compound I-333], in assay [1], the EC50 is less than 0.1 µM.
In the case of `OCC(CO)(CO)Nc1nc(-c2cc(-c3ccon3)n(Cc3ccccc3F)n2)ncc1F` [Compound I-334], the EC50 in assay [1] lay in the range of 0.101 to 1 µM.
For `NC(=O)[C@H](CO)Nc1nc(-c2cc(-c3ccon3)n(Cc3ccccc3F)n2)ncc1F` [Compound I-335], in assay [1], the EC50 fell in the range of 0.101 to 1 µM.
On to `O=C(NC(CO)CO)[C@@H](CO)Nc1nc(-c2cc(-c3ccon3)n(Cc3ccccc3F)n2)ncc1F` [Compound I-336], for which the EC50 in assay [1] was more than 1 µM.
On the same count and under the same terms, the result for `O=C(O)c1cccc2c1CN(c1nc(-c3cc(-c4ccon4)n(Cc4ccccc4F)n3)ncc1F)CC2` [Compound I-339] reads less than 0.1 µM; that for `CN(CC1(C(=O)O)CC1)c1nc(-c2cc(-c3nccs3)n(Cc3ccccc3F)n2)ncc1F` [Compound I-343], less than 0.1 µM.
On to `CC(C)[C@H](CN(C)c1nc(-c2cc(-c3ccon3)n(Cc3ccccc3F)n2)ncc1F)NS(=O)(=O)C1CC1` [Compound I-344], for which the EC50 in assay [1] was less than 0.1 µM.
